Data from PubChem BioAssay (NCI).
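Following 48 hours of exposure in 96-well plates, responses at five concentrations were used to interpolate endpoints linearly. TGI: total growth inhibition.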

How the values were obtained:
Assay in all cases: inhibition of tumour cell growth, NCI panel, 48 h
[1] = system: 786-0 renal
[2] = system: A498 renal
[3] = system: A549 NSCLC
[4] = system: ACHN renal
[5] = system: BT-549 breast
[6] = system: CAKI-1 renal
[7] = system: CCRF-CEM leukemia
[8] = system: COLO 205 colon
[9] = system: DU-145 prostate
[10] = system: EKVX NSCLC
[11] = system: HCT-116 colon
[12] = system: HCT-15 colon
[13] = system: HL-60(TB) leukemia
[14] = system: HOP-62 NSCLC
[15] = system: HOP-92 NSCLC
[16] = system: HS 578T breast
[17] = system: HT29 colon
[18] = system: IGROV1 ovarian
[19] = system: K-562 leukemia
[20] = system: KM12 colon
[21] = system: LOX IMVI melanoma
[22] = system: M14 melanoma
[23] = system: MALME-3M melanoma
[24] = system: MCF7 breast
[25] = system: MDA-MB-231 breast
[26] = system: MDA-MB-435
[27] = system: MDA-N
[28] = system: MOLT-4 leukemia
[29] = system: NCI-H226 lung
[30] = system: NCI-H460 lung
[31] = system: NCI/ADR-RES ovarian
[32] = system: OVCAR-3 ovarian
[33] = system: OVCAR-4 ovarian
[34] = system: OVCAR-5 ovarian
[35] = system: OVCAR-8 ovarian
[36] = system: PC-3 prostate
[37] = system: RPMI-8226 leukemia
[38] = system: RXF 393 renal
[39] = system: SF-268 CNS
[40] = system: SF-295 CNS
[41] = system: SF-539 CNS
[42] = system: SK-MEL-2 melanoma
[43] = system: SK-MEL-28 melanoma
[44] = system: SK-MEL-5 melanoma
[45] = system: SK-OV-3 ovarian
[46] = system: SN12C renal
[47] = system: SNB-19 CNS
[48] = system: SW-620 colon
[49] = system: T-47D breast
[50] = system: TK-10 renal
[51] = system: U251 CNS
[52] = system: UACC-257 melanoma
[53] = system: UACC-62 melanoma
[54] = system: UO-31 renal
[55] = system: HCC-2998 colon
[56] = system: NCI-H23 lung
[57] = system: NCI-H522 lung
[58] = system: SNB-75 CNS
[59] = system: SR leukemia

**Q.** Which TGI [1] does the source give for `N#CCCN(CCC#N)c1ccc(/C=C2\N=C(c3ccccc3)N(NC(N)=S)C2=O)cc1` here?
**A.** The TGI was greater than 100 µM.

**Q.** What about the TGI [2] of the same compound?
**A.** Its TGI is greater than 100 µM.

**Q.** And the TGI [3]?
**A.** The TGI was greater than 100 µM.

**Q.** What about the TGI [4] of the same compound?
**A.** Its TGI is greater than 100 µM.

**Q.** And the TGI [5]?
**A.** The TGI was greater than 100 µM.

**Q.** What about the TGI [6] of the same compound?
**A.** The TGI was greater than 100 µM.

**Q.** And the TGI [7]?
**A.** The TGI was greater than 100 µM.

**Q.** What about the TGI [8] of the same compound?
**A.** Its TGI is greater than 100 µM.

**Q.** And the TGI [9]?
**A.** Its TGI is greater than 100 µM.

**Q.** What about the TGI [10] of the same compound?
**A.** The TGI was greater than 100 µM.

**Q.** And the TGI [11]?
**A.** The TGI was greater than 100 µM.

**Q.** And the TGI [12]?
**A.** Its TGI is greater than 100 µM.

**Q.** What about the TGI [13] of the same compound?
**A.** The TGI was greater than 100 µM.

**Q.** What about the TGI [14] of the same compound?
**A.** Its TGI is greater than 100 µM.

**Q.** What about the TGI [15] of the same compound?
**A.** Its TGI is greater than 100 µM.

**Q.** What about the TGI [16] of the same compound?
**A.** Its TGI is greater than 100 µM.

**Q.** And the TGI [17]?
**A.** The TGI was greater than 100 µM.

**Q.** And the TGI [18]?
**A.** The TGI was greater than 100 µM.

**Q.** And the TGI [19]?
**A.** The TGI was greater than 100 µM.

**Q.** What about the TGI [20] of the same compound?
**A.** Its TGI is greater than 100 µM.

**Q.** And the TGI [21]?
**A.** The TGI was greater than 100 µM.

**Q.** And the TGI [22]?
**A.** The TGI was greater than 100 µM.

**Q.** What about the TGI [23] of the same compound?
**A.** Its TGI is greater than 100 µM.

**Q.** What about the TGI [24] of the same compound?
**A.** Its TGI is greater than 100 µM.

**Q.** And the TGI [25]?
**A.** Its TGI is greater than 100 µM.

**Q.** And the TGI [26]?
**A.** The TGI was greater than 100 µM.

**Q.** And the TGI [27]?
**A.** Its TGI is greater than 100 µM.

**Q.** What about the TGI [28] of the same compound?
**A.** The TGI was greater than 100 µM.

**Q.** What about the TGI [29] of the same compound?
**A.** Its TGI is greater than 100 µM.

**Q.** And the TGI [30]?
**A.** Its TGI is greater than 100 µM.

**Q.** What about the TGI [31] of the same compound?
**A.** The TGI was greater than 100 µM.

**Q.** What about the TGI [32] of the same compound?
**A.** The TGI was greater than 100 µM.

**Q.** And the TGI [33]?
**A.** The TGI was greater than 100 µM.

**Q.** What about the TGI [34] of the same compound?
**A.** The TGI was greater than 100 µM.

**Q.** What about the TGI [35] of the same compound?
**A.** Its TGI is greater than 100 µM.

**Q.** And the TGI [36]?
**A.** The TGI was greater than 100 µM.

**Q.** What about the TGI [37] of the same compound?
**A.** Its TGI is greater than 100 µM.

**Q.** And the TGI [38]?
**A.** The TGI was greater than 100 µM.

**Q.** What about the TGI [39] of the same compound?
**A.** Its TGI is greater than 100 µM.

**Q.** And the TGI [40]?
**A.** The TGI was greater than 100 µM.

**Q.** What about the TGI [41] of the same compound?
**A.** Its TGI is greater than 100 µM.

**Q.** What about the TGI [42] of the same compound?
**A.** Its TGI is greater than 100 µM.

**Q.** And the TGI [43]?
**A.** The TGI was greater than 100 µM.

**Q.** What about the TGI [44] of the same compound?
**A.** The TGI was greater than 100 µM.

**Q.** And the TGI [45]?
**A.** The TGI was greater than 100 µM.

**Q.** And the TGI [46]?
**A.** Its TGI is greater than 100 µM.

**Q.** And the TGI [47]?
**A.** Its TGI is greater than 100 µM.

**Q.** And the TGI [48]?
**A.** The TGI was greater than 100 µM.

**Q.** And the TGI [49]?
**A.** The TGI was greater than 100 µM.

**Q.** And the TGI [50]?
**A.** The TGI was greater than 100 µM.

**Q.** And the TGI [51]?
**A.** Its TGI is greater than 100 µM.

**Q.** What about the TGI [52] of the same compound?
**A.** The TGI was greater than 100 µM.

**Q.** And the TGI [53]?
**A.** The TGI was greater than 100 µM.

**Q.** What about the TGI [54] of the same compound?
**A.** The TGI was greater than 100 µM.

**Q.** Which results are given for `COc1ccc(OC)c(CC2CCc3nc(N)nc(N)c3C2)c1` (stereo unspecified)?
**A.** TGI [1]: 4.46 µM; TGI [2]: 62 µM; TGI [3]: > 100 µM; TGI [4]: > 65.8 µM; TGI [5]: 6.22 µM; TGI [6]: > 100 µM; TGI [7]: > 100 µM; TGI [8]: 29.2 µM; TGI [10]: > 100 µM; TGI [55]: > 49.9 µM; TGI [11]: > 100 µM; TGI [12]: > 72.8 µM; TGI [13]: > 100 µM; TGI [14]: 24.4 µM; TGI [15]: 77.4 µM; TGI [16]: > 70.8 µM; TGI [17]: > 100 µM; TGI [18]: 28.1 µM; TGI [19]: > 100 µM; TGI [20]: > 100 µM; TGI [21]: 25.6 µM; TGI [22]: 24.3 µM; TGI [23]: 24.2 µM; TGI [24]: 32 µM; TGI [25]: > 100 µM; TGI [26]: 54 µM; TGI [27]: 27.7 µM; TGI [28]: > 100 µM; TGI [29]: > 49.4 µM; TGI [56]: > 49.8 µM; TGI [30]: > 46 µM; TGI [57]: 25 µM; TGI [31]: > 32.4 µM; TGI [32]: > 100 µM; TGI [33]: > 100 µM; TGI [34]: > 100 µM; TGI [35]: > 100 µM; TGI [36]: 52.7 µM; TGI [37]: > 100 µM; TGI [38]: 4.37 µM; TGI [40]: 27.7 µM; TGI [41]: 22.6 µM; TGI [42]: 43.6 µM; TGI [43]: > 92.5 µM; TGI [44]: 28.9 µM; TGI [45]: > 100 µM; TGI [46]: > 100 µM; TGI [47]: > 81.8 µM; TGI [58]: 27.2 µM; TGI [59]: > 69.8 µM; TGI [48]: > 100 µM; TGI [49]: > 68 µM; TGI [50]: > 94 µM; TGI [51]: > 100 µM; TGI [52]: 34.4 µM; TGI [53]: 25.8 µM; TGI [54]: > 75.4 µM
